Measurements as given in patent US20230263822A1, “MODULATION OF FACTOR 11 EXPRESSION” (Ionis Pharmaceuticals, Inc., priority 2008, published 2023).

Test: Hematology assays in cynomolgus monkeys (Example 45)
Type: in vivo
Conditions: for MCH / MCHC / MCV / RBC count / WBC count / hematocrit / hemoglobin: escalating dose regimen
Experimental: Groups, each consisting of two male and three female monkeys, were injected subcutaneously with ISIS 416838, ISIS 416850, ISIS 416858, ISIS 416864, or ISIS 417002 in escalating doses. Antisense oligonucleotide was administered to the monkeys at 5 mg/kg three times per a week for week 1; 5 mg/kg twice per week for weeks 2 and 3; 10 mg/kg three times per week for week 4; 10 mg/kg twice per week for weeks 5 and 6; 25 mg/kg three times per week for week 7; and 25 mg/kg twice per week for weeks 8, 9, 10, 11, and 12. One control group, consisting of two male and three female monkeys, was injected subcutaneously with PBS according to the same dosing regimen. An additional experimental group, consisting of two male and three female monkeys, was injected subcutaneously with ISIS 416850 in a chronic, lower dose regimen. Antisense oligonucleotide was administered to the monkeys at 5 mg/kg three times per week for week 1; 5 mg/kg twice per week for week 2 and 3; 10 mg/kg three times per week for week 4; and 10 mg/kg twice per week for weeks 5 to 12. Body weights were measured weekly. Blood samples were collected 14 days and 5 days before the start of treatment and subsequently once per week for Factor 11 protein activity analysis in plasma, fibrinogen measurement, PT and aPTT measurements, bleeding times, and measurement of various hematologic factors. On day 85, the monkeys were euthanized by exsanguination while under deep anesthesia, and organs harvested for further analysis.
The ISIS oligonucleotide, ISIS 416850, given with the chronic dose regimen is distinguished from the other oligonucleotides with an asterisk (*).

Question: Which results are given for “ISIS 416838: MOE gapmer, nucleobases 1018 to 1042 of SEQ ID NO: 1 (Table 6) (antisense GCAACCGGGATGATGAGTGC; MOE gapmer, wing and gap sizes not given here)”?
Answer: MCH (Day 64): 23 pg; MCH (Day 71): 23 pg; MCH (Day 78): 23 pg; MCH (Day 85): 23 pg; basophils (day 8): 0.2%; eosinophils (day 8): 0.4%; lymphocytes (day 8): 54%; monocytes (day 8): 2.5%; neutrophils (day 8): 42%; platelet count (day 8): 387000 µL⁻¹; reticulocytes (day 8): 1.2%; MCH (day 8): 23 pg; MCHC (day 8): 30 g/dL; MCV (day 8): 77 fL; RBC count (day 8): 5.7e+06 µL⁻¹; WBC count (day 8): 10000 µL⁻¹; hematocrit (day 8): 43%; hemoglobin (day 8): 12.9 g/dL; basophils (day 15): 0.3%; eosinophils (day 15): 0.3%; lymphocytes (day 15): 53%; monocytes (day 15): 2.4%; neutrophils (day 15): 43%; platelet count (day 15): 387000 µL⁻¹; reticulocytes (day 15): 1.2%; MCH (day 15): 23 pg; MCHC (day 15): 31 g/dL; MCV (day 15): 75 fL; RBC count (day 15): 5.6e+06 µL⁻¹; WBC count (day 15): 10000 µL⁻¹; hematocrit (day 15): 42%; hemoglobin (day 15): 12.9 g/dL; basophils (day 22): 0.2%; eosinophils (day 22): 0.5%; lymphocytes (day 22): 59%; monocytes (day 22): 2.9%; neutrophils (day 22): 37%; platelet count (day 22): 319000 µL⁻¹; reticulocytes (day 22): 1.2%; MCH (day 22): 23 pg; MCHC (day 22): 29 g/dL; MCV (day 22): 80 fL; RBC count (day 22): 5.4e+06 µL⁻¹; WBC count (day 22): 11000 µL⁻¹; hematocrit (day 22): 43%; hemoglobin (day 22): 12.5 g/dL; basophils (day 29): 0.2%; eosinophils (day 29): 0.3%; lymphocytes (day 29): 59%; monocytes (day 29): 3.2%; neutrophils (day 29): 36%; platelet count (day 29): 337000 µL⁻¹; reticulocytes (day 29): 1.6%; MCH (day 29): 23 pg; MCHC (day 29): 29 g/dL; MCV (day 29): 81 fL; RBC count (day 29): 5.3e+06 µL⁻¹; WBC count (day 29): 11000 µL⁻¹; hematocrit (day 29): 43%; hemoglobin (day 29): 12.4 g/dL; basophils (day 36): 0.4%; eosinophils (day 36): 0.5%; lymphocytes (day 36): 57%; monocytes (day 36): 2.5%; neutrophils (day 36): 39%; platelet count (day 36): 370000 µL⁻¹; reticulocytes (day 36): 1.6%; MCH (day 36): 23 pg; MCHC (day 36): 30 g/dL; MCV (day 36): 78 fL; RBC count (day 36): 5.5e+06 µL⁻¹; WBC count (day 36): 10000 µL⁻¹; hematocrit (day 36): 43%; hemoglobin (day 36): 12.8 g/dL; basophils (day 43): 0.4%; eosinophils (day 43): 0.6%; lymphocytes (day 43): 65%; monocytes (day 43): 3.3%; neutrophils (day 43): 30%; platelet count (day 43): 365000 µL⁻¹; reticulocytes (day 43): 1.2%; MCH (day 43): 23 pg; MCHC (day 43): 30 g/dL; MCV (day 43): 78 fL; RBC count (day 43): 5.6e+06 µL⁻¹; WBC count (day 43): 10000 µL⁻¹; hematocrit (day 43): 43%; hemoglobin (day 43): 12.7 g/dL; basophils (day 50): 0.3%; eosinophils (day 50): 0.8%; lymphocytes (day 50): 64%; monocytes (day 50): 3.2%; neutrophils (day 50): 31%; platelet count (day 50): 372000 µL⁻¹; reticulocytes (day 50): 1.6%; MCH (day 50): 23 pg; MCHC (day 50): 28 g/dL; MCV (day 50): 80 fL; RBC count (day 50): 5.5e+06 µL⁻¹; WBC count (day 50): 11000 µL⁻¹; hematocrit (day 50): 44%; hemoglobin (day 50): 12.3 g/dL; basophils (day 57): 0.3%; eosinophils (day 57): 0.6%; lymphocytes (day 57): 63%; monocytes (day 57): 3.2%; neutrophils (day 57): 32%; platelet count (day 57): 371000 µL⁻¹; reticulocytes (day 57): 1.5%; MCH (day 57): 23 pg; MCHC (day 57): 29 g/dL; MCV (day 57): 79 fL; RBC count (day 57): 5.5e+06 µL⁻¹; WBC count (day 57): 12000 µL⁻¹; hematocrit (day 57): 43%; hemoglobin (day 57): 12.6 g/dL; basophils (day 64): 0.4%; eosinophils (day 64): 0.7%; lymphocytes (day 64): 64%; monocytes (day 64): 3.5%; neutrophils (day 64): 30%; platelet count (day 64): 358000 µL⁻¹; reticulocytes (day 64): 1.3%; MCHC (day 64): 29 g/dL; MCV (day 64): 79 fL; RBC count (day 64): 5.6e+06 µL⁻¹; WBC count (day 64): 13000 µL⁻¹; hematocrit (day 64): 44%; hemoglobin (day 64): 12.6 g/dL; basophils (day 71): 0.5%; eosinophils (day 71): 0.8%; lymphocytes (day 71): 65%; monocytes (day 71): 4.3%; neutrophils (day 71): 28%; platelet count (day 71): 365000 µL⁻¹; reticulocytes (day 71): 1.3%; MCHC (day 71): 29 g/dL; MCV (day 71): 80 fL; RBC count (day 71): 5.5e+06 µL⁻¹; WBC count (day 71): 15000 µL⁻¹; hematocrit (day 71): 44%; hemoglobin (day 71): 12.7 g/dL; basophils (day 78): 0.4%; eosinophils (day 78): 0.9%; lymphocytes (day 78): 60%; monocytes (day 78): 3.6%; neutrophils (day 78): 35%; platelet count (day 78): 348000 µL⁻¹; reticulocytes (day 78): 1.4%; MCHC (day 78): 30 g/dL; MCV (day 78): 76 fL; RBC count (day 78): 5.4e+06 µL⁻¹; WBC count (day 78): 11000 µL⁻¹; hematocrit (day 78): 41%; hemoglobin (day 78): 12.5 g/dL; basophils (day 85): 0.3%; eosinophils (day 85): 1.5%; lymphocytes (day 85): 72%; monocytes (day 85): 3.7%; neutrophils (day 85): 22%; platelet count (day 85): 344000 µL⁻¹; reticulocytes (day 85): 1.5%; MCHC (day 85): 30 g/dL; MCV (day 85): 77 fL; RBC count (day 85): 5.5e+06 µL⁻¹; WBC count (day 85): 12000 µL⁻¹; hematocrit (day 85): 42%; hemoglobin (day 85): 12.4 g/dL; basophils (day −5): 0.3%; eosinophils (day −5): 0.6%; lymphocytes (day −5): 59%; monocytes (day −5): 3.6%; neutrophils (day −5): 35%; platelet count (day −5): 425000 µL⁻¹; reticulocytes (day −5): 0.9%; MCH (day −5): 23 pg; MCHC (day −5): 31 g/dL; MCV (day −5): 76 fL; RBC count (day −5): 5.6e+06 µL⁻¹; WBC count (day −5): 12000 µL⁻¹; hematocrit (day −5): 42%; hemoglobin (day −5): 13.1 g/dL; basophils (day −14): 0.2%; eosinophils (day −14): 0.6%; lymphocytes (day −14): 59%; monocytes (day −14): 3.1%; neutrophils (day −14): 36%; platelet count (day −14): 377000 µL⁻¹; reticulocytes (day −14): 1.0%; MCH (day −14): 23 pg; MCHC (day −14): 30 g/dL; MCV (day −14): 77 fL; RBC count (day −14): 5.6e+06 µL⁻¹; WBC count (day −14): 12000 µL⁻¹; hematocrit (day −14): 42%; hemoglobin (day −14): 12.9 g/dL
